Reference: US20070207946A1, “Dipeptidyl peptidase IV inhibitors and their uses for lowering blood pressure levels” (priority 2001, published 2007)

Target: T1, recombinant human prolyl oligopeptidase (Homo sapiens, UniProt P48147)
T1 construct: made in house; host or cells: E. coli
T1 sequence (P48147 1-710): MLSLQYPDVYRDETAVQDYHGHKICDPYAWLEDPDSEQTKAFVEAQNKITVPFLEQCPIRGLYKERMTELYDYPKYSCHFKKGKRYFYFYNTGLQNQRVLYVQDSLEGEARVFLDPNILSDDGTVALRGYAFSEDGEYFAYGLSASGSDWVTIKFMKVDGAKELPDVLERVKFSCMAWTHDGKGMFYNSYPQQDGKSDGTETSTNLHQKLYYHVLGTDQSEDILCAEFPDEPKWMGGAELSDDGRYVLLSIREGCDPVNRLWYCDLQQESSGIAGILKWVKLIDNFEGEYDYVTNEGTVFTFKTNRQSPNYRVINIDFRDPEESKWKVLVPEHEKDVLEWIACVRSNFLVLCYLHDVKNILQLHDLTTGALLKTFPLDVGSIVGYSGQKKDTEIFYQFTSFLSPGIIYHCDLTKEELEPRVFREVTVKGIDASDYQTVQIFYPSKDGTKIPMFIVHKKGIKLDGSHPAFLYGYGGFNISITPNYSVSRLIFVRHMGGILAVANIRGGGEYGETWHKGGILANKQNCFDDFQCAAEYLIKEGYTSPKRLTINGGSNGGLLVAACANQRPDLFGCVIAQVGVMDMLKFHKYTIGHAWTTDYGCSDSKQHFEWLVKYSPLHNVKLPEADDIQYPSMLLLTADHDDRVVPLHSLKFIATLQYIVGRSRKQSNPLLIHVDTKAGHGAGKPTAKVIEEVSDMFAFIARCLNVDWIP
Test: Cross reacting enzymes - prolyl oligopeptidase
Format: biochemical
Details: concentration range 1*10^−4M-5*10^−8 M; pH7.6
Description: Substrates are peptides with a molecular weight up to 3000 Da. The enzyme used was a recombinant human prolyl oligopeptidase. Recombinant expression was performed in E. coli under standard conditions as described elsewhere in the state of the art.
100 μl glutaminyl pyrrolidine or glutaminyl thiazolidine in an concentration range of 1*10^−4M-5*10^−8 M were admixed with 100 μl μl buffer solution (40 mM HEPES, pH7.6, 0.015% Brij, 1 mM DTT) and 20 μl POP solution. The assay mixture was pre-incubated at 30° C. for 15 min. After pre-incubation, 50 μl glycylprolylprolyl-4-nitroaniline solution (0.29 mM) was added and measurement of yellow color development due to 4-nitroaniline release was performed at 30° C. and λ=405 nm for 10 min using a plate reader (sunrise, Tecan, Crailsheim, Germany). The IC50-values were calculated using Graphit 4.0.15 (Erithacus Software, Ltd., UK).

inhibition of POP activity: No inhibition
SMILES: NC(=O)CCC(N)C(=O)N1CCCC1 (stereo not shown) [Gln-Pyrr, glutaminyl pyrrolidine]
